The text below walks through data of paper PMC12088962, “Design, synthesis, and biological investigation of new thiazole-based derivatives as multi-targeted inhibitors endowed with antiproliferative, antioxidant, and antibacterial properties” (Frontiers in Chemistry, 2025).

One series deals with Panc-1 cells. Nature of the series: Antiproliferative MTT assay. Background: Tetrazolium assays rely on reduction of a dye to a coloured formazan, in cell work by metabolically active cells.
A further series deals with E. coli DNA gyrase (Escherichia coli, UniProt P0AES6). Nature of the series: DNA gyrase supercoiling assay. In kind it is biochemical. The conditions noted are these: for remaining activity at 1 µM: read-out: RA (residual activity of the enzyme), E. Coli DNA gyrase. The protocol: 4.2.3. Determination of Inhibitory Activities on E. coli DNA Gyrase.
All the final compounds were tested for E. coli DNA gyrase inhibitory activity in a supercoiling assay. Activities were determined on streptavidin -coated 96-well microtiter plates from Thermo scientific Pierce. First, the plates were rehydrated with buffer (20 mM Tris -HCl with pH 7.6, 0.01% […]
immobilized. After washing off the unbound oligonucleotide, the enzyme test was performed. The reaction volume of 30 μL in buffer (35 mM Tris-HCl with pH 7.5, 4 mM MgCl 2, 24 mM KCl, 2 […]
1.5 U of DNA gyrase from E. coli or S. aureus, 0.75 μg of relaxed pNO1 plasmid, and 3 μL solution of the inhibitor in 1 0% DMSO and 0.008% Tween 20. Reaction solutions were incubated at 37 °C […]
for 30 min. After that, the TF buffer (50 mM NaOAc with pH 5.0, 50 mM NaCl and 50 mM MgCl2) was added to terminate the enzymatic reaction. After additional incubation for 30 min at rt, during which biotin-oligonucleotide-plasmid triplex was formed, the unbound plasmid was washed off using TF buffer and SybrGOLD in T10 buffer (10 mM Tris HCl wit h pH 8.0 and 1 mM EDTA) was added. The fluorescence was measured with a microplate reader (BioTek Synergy H4, excitation: 485 nm, emission: 535 nm). […]
tested compounds. GraphPad Prism software was used to calculate the IC50 values. The result is given as the average value of three independent measurements. […]

In another series the test system is MCF-10A cells. The following applies: 50 µM.
In the next series the test system is HT-29 cells. The series can be described thus: Antiproliferative MTT assay.
For a further series, the system named is A-549 cells. Nature of the series: Antiproliferative MTT assay.
In the next series the test system is MCF-7 cells. The series can be described thus: Antiproliferative MTT assay.
Series [1] relates to four cancer cell lines (A-549, MCF-7, Panc-1, HT-29). Nature of the series: Antiproliferative MTT assay, average over four cancer cell lines. The following applies: for GI50: read-out: Antiproliferative activity, Average (GI50).
Excerpt: (§9) Dose-response assays determined the IC50 values for the novel compounds. We derived the reported data from a minimum of two separate experiments, each consisting of three repetitions per concentration.
Assay for antiproliferative effect
The target of a further series is EGFR (Homo sapiens, UniProt P00533). Nature of the series: EGFR-TK inhibitory assay.
EGFR, sequence (P00533 669-1210): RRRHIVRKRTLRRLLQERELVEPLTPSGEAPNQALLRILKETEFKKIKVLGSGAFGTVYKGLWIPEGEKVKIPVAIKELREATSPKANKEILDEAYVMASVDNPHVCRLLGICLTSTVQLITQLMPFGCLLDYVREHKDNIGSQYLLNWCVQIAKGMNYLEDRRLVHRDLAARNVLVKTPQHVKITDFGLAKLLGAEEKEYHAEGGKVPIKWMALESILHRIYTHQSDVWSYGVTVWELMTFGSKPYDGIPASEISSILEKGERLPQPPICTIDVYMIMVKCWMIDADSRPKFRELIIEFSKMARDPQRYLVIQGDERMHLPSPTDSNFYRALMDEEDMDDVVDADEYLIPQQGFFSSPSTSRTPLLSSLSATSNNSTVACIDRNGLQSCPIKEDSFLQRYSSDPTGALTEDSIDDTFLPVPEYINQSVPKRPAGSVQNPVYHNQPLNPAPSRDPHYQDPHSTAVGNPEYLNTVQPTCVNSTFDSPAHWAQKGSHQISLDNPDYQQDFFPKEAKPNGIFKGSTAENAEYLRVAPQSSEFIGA
A further series deals with VEGFR-2 (Homo sapiens, UniProt P35968). The series can be described thus: VEGFR-2 inhibitory assay.
VEGFR-2, sequence (P35968 20-1356): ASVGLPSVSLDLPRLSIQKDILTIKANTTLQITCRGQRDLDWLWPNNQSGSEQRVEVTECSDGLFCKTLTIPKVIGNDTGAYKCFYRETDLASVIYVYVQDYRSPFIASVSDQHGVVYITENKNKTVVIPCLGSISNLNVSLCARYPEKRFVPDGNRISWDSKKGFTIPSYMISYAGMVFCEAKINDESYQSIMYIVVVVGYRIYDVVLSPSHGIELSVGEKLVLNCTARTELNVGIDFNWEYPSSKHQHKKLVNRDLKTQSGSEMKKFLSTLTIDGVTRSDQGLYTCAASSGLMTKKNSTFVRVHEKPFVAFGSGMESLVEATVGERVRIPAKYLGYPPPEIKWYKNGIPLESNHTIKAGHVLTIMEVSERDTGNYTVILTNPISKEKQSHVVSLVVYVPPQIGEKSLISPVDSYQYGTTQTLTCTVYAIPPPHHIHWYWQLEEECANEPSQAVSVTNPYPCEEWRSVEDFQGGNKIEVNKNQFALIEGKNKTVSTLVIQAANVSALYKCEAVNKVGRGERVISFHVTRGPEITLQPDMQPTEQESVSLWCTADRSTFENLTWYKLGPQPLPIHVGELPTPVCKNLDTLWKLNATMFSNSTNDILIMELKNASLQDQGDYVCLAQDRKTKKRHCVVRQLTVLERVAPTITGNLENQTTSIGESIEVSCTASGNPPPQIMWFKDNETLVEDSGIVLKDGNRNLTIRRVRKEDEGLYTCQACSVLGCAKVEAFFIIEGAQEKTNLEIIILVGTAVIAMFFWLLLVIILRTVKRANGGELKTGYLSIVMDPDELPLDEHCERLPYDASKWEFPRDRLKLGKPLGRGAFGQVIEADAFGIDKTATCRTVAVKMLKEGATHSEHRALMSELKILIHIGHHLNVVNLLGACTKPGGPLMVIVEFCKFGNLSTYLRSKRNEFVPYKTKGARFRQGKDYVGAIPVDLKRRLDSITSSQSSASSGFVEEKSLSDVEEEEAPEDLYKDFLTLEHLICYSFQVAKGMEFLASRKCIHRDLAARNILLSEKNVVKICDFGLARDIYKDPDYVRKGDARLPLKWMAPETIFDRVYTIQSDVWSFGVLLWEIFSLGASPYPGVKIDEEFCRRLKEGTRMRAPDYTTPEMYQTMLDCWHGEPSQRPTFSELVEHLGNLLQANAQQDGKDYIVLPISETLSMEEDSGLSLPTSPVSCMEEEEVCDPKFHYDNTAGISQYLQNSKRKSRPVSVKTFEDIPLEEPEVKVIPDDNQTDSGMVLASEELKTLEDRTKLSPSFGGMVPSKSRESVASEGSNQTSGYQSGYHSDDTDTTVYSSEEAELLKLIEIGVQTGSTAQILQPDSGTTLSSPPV
Another series in a line: in vitro. The conditions noted are these: human, MCF-10A mammary gland epithelial cells (normal cell line).
The next series has as its system S. aureus. The series can be described thus: MIC by twofold serial dilution. In kind it is cell-based, Staphylococcus aureus (ATCC 12600). The conditions noted are these: Staphylococcus aureus; Gram-positive; read-out: Minimum inhibitory concentration (MIC), S. aureus. The protocol:
(§1) The antibacterial efficacy of compounds 11b, 11e, and 12b was evaluated against Gram-positive bacteria (S. aureus and B. subtilis) and Gram-negative bacteria (E. coli and P. aeruginosa). Table 5 presents the MICs (nM) of these compounds against the evaluated bacteria, utilizing ciprofloxacin as the reference drug, determined through a twofold serial dilution approach on a 96-well microtiter plate ([Frejat F. O. et al., 2022]).
(§2) The antibacterial efficacy of compounds 11b, 11e, and 12b was evaluated against Gram-positive bacteria (S. aureus and B. subtilis) and Gram-negative bacteria (E. coli and P. aeruginosa). The MICs (nM) of the tested compounds against the evaluated bacteria were determined through a twofold serial dilution approach on a 96-well microtiter plate ([Frejat F. O. et al., 2022]). See Appendix A for more details.
(§3) 4.2. Antimicrobial activity
(§4) 4.2.1. Organisms and culture conditions […]
(§5) 4.2.2. Minimum inhibitory concentration assay
(§6) In 96-well microtiter plates and […] of fresh bacterial culture of a single McFarland unit overnight, a double serial dilution of each compound […] in sterile standard saline were prepared to every single source well. Ciprofloxacin antibiotic (5 mg / mL-1) and normal saline were included as standard reference in each assay. The plates were incubated at 37 0C overnight.
(§7) As an indicator of bacterial growth, […] of p -iodonitrotetrazolium violet (INT) was added to each well and incubated at 37 0C for 30 min. MIC values are recorded as the lowest concentration […]
(§8) tetrazolidium salt acts as an electron accepter and is reduced to a red colored formazan product by biological activity organisms. Where bacterial growth was inhibited, the solution in the well remained clear after incubation with INT. […]

The test system of the next series is P. aeruginosa. The series can be described thus: MIC by twofold serial dilution. In kind it is cell-based, Pseudomonas aeuroginosa (ATCC 10145). The conditions noted are these: Pseudomonas aeruginosa; Gram-negative; read-out: Minimum inhibitory concentration (MIC), P. aeruginosa. As to the method: as §1, §2, §3, §4, §5, §6, §7, §8
A further series relates to B. subtilis. Nature of the series: MIC by twofold serial dilution. In kind it is cell-based, Bacillus subtilis (ATCC 6051). As to the method: as §1, §2, §3, §4, §5, §6, §7, §8
The subject of a further series is E. coli. Nature of the series: MIC by twofold serial dilution. Format: cell-based, Escherichia coli (ATCC 11775). The conditions noted are these: Escherichia coli; Gram-negative; read-out: Minimum inhibitory concentration (MIC), E. coli. The protocol: as §1, §2, §3, §4, §5, §6, §7, §8
For series [2], the target named is S. aureus topoisomerase IV. The following applies: read-out: IC50 for S. aureus topoisomerase IV (internal standard value); value stated in the supplementary method, no reference given; cited from earlier work.
The mark [3] stands for this setting: Homo sapiens, PANC-1, read-out: Antiproliferative activity IC50 ± SEM, Panc-1.
Setting [4] is: Homo sapiens, HT-29, read-out: Antiproliferative activity IC50 ± SEM, HT-29.
The mark [5] stands for this setting: Homo sapiens, A549, read-out: Antiproliferative activity IC50 ± SEM, A-549.
Setting [6] is: Homo sapiens, MCF7, read-out: Antiproliferative activity IC50 ± SEM, MCF-7.

Converted amounts (≈) assume the structure as drawn. Like-named read-outs stand apart in the source and are kept apart here.

Excerpt for A-549 cells: as §9
Assay for antiproliferative effect
Excerpt for HT-29 cells: as §9
Assay for antiproliferative effect
Excerpt for MCF-7 cells: as §9
Assay for antiproliferative effect
Excerpt for Panc-1 cells: as §9
Assay for antiproliferative effect
Description for VEGFR-2: The outcomes are presented as IC50 values.
was added to each well followed by incubation of 1h and then washing of the plates using buffer.
The enhancement solution was added to each well and the signal was recorded at excitation and
The autophosphorylation percentage inhibition by compounds was calculated using the following equation:
Prepare all the solutions using autoclaved, deionized water and analytical grade reagents.
and store all the reagents at room temperature (unless indicated otherwise).
solution, add 5 mL ultra-pure water; 1×Kinase Assay Buffer: add 25 mL HEPES solution (1 M),
water, adjust pH to 7.5 and constant volume to 500 mL using ultrapure water; 4×Stop solution (40
mM): Mix 0.8 mL of the foregoing EDTA solution, 1 mL 10×Detection Buffer and 8.2 mL ultra-
pure water; 1×Detection Buffer: Mix 1 mL 10×Detection Buffer with 9 mL water; 4×VEGFR
μM) was added to 624 μL 1×Kinase Assay Buffer and mixed; 4×ULight™-labeled JAK1
(substrate) (200 nM, 25 times diluted): 24 μL ULight™-labeled JAK1 (mother liquor
concentration 5 μM) was added to 576 μL 1×Kinase Assay Buffer and mixed; 4×ATP Solution
(40 μM, 250 times diluted): add 3 μL ATP solution (10 mM) to 747 μL 1×Kinase Assay Buffer
2×substrate/ATP Mix: 560 μL foregoing 4×ULight™-labeled JAK1 and 560 μL 4×ATP solution
and mixed (prepared before use). The assays used an ULight-labeled peptide substrate and a
Europium-W1024-labeled antiphosphotyrosine antibody. The VEGFR-2 was purchased from
Carna Biosciences, Inc. (New York, USA). The 384-well plates were obtained from PerkinElmer.
5 μL 2×VEGFR-2 kinase solution (0.5 nM)
was added to 384-well plates homogeneous mixing and pre-reaction at room temperature for 30 min. Next, 2.5 μL 4×Ultra ULightTM-JAK-1(Tyr1023) Peptide (200 nM)/ATP (40 μM) was added to the corresponding wells of a 384-well plate. Negative control: 2.5 μL/well 4×substrate/ATP mixture and 7.5 μL 1×kinase assay buffer in 384-well plate well. Positive control:
μL/well 2×VEGFR-2 kinase solution was added to the 384-well plate, The final concentration of DMSO in the mixing system was 4%. After incubation at room temperature and dark for 60 min, 5 μL 4×stop solution was added to corresponding wells to react for 5 min and then 5 μL 4×detection mix was added to the corresponding wells of a 384-well plate. The mixture was centrifugally mixed and stayed for 60 min at room temperature for color development. The plate was read using a Envision plate reader. The inhibition rate (%) = (positive well reading-compound well reading)/(positive well reading-negative well reading)×100. The corresponding IC50 values were calculated using GraphPad Prism 5.0.

As to “(E)-3-(2-((5-(3-(4-Methoxyphenyl)acryloyl)-4-methylthiazol-2-yl)thio) acetyl)-2H-chromen-2-one [Compound 11c]”, the IC50 in the series with Panc-1 cells (read-out: Antiproliferative activity IC50 ± SEM, Panc-1, pancreatic cancer Panc-1, MTT) was determined as 0.054 ± 0.004 µM; in the series with HT-29 cells (read-out: Antiproliferative activity IC50 ± SEM, HT-29, colon cancer HT-29, MTT), 0.057 ± 0.004 µM; with A-549 cells (read-out: Antiproliferative activity IC50 ± SEM, A-549, lung cancer A-549, MTT) it was 0.052 ± 0.004 µM; with MCF-7 cells (read-out: Antiproliferative activity IC50 ± SEM, MCF-7, breast cancer MCF-7, MTT), 0.056 ± 0.004 µM. Besides, the “RA (residual activity of the enzyme), E. Coli DNA gyrase” value at E. coli DNA gyrase (at 1 μM of compound) turned out to be 68%. In addition, the Cell viability % in the series on MCF-10A cells was determined as 90%. For the same compound, the “Fold less potent than compound 11f (GI50)” value in [1] was “twofold”. Moreover, the GI50 in [1] (average IC50 over the four cancer cell lines) came out at 0.055 µM.

As for `Cc1nc(SCC(=O)c2cc3cc(Br)ccc3oc2=O)sc1C(=O)/C=C/c1ccccc1` [Compound 11d, (E)-6-Bromo-3-(2-((5-cinnamoyl-4-methylthiazol-2-yl)thio)acetyl)-2H-chromen-2-one], the IC50 is 0.03 ± 0.001 µM in the series with Panc-1 cells (setting [3]); 0.076 ± 0.003 µM against EGFR; 3.6 ± 0.02 µM against VEGFR-2; 0.03 ± 0.001 µM in the series with HT-29 cells (setting [4]); 0.028 ± 0.001 µM with A-549 cells (setting [5]); 0.031 ± 0.001 µM in the series with MCF-7 cells (setting [6]). Also, the remaining activity at 1 µM on E. coli DNA gyrase is 54%. This compound registered a viability at 96 h, 50 µM in “in vitro” of 95%. For the same compound, in series [1], the “Fold less potent than compound 11f (GI50)” value was determined as 1.1 fold. Further, the concentration for 50% growth inhibition (GI50) in [1] (Homo sapiens) amounted to 0.03 µM.

On to `Cc1nc(SCC(=O)c2cc3cc(Br)ccc3oc2=O)sc1C(=O)/C=C/c1ccc(Cl)cc1` [Compound 11e, (E)-6-Bromo-3-(2-((5-(3-(4-chlorophenyl)acryloyl)-4-methylthiazol-2-yl)thio)acetyl)-2H-chromen-2-one], for which the IC50 in the series on Panc-1 cells (setting [3]) is 0.04 ± 0.002 µM; against EGFR it was 0.089 ± 0.004 µM; on E. coli DNA gyrase, 0.19 ± 0.013 µM; at VEGFR-2, 4.9 ± 0.03 µM; in the series with HT-29 cells (setting [4]) it was 0.042 ± 0.002 µM; in the series on A-549 cells (setting [5]) it was 0.037 ± 0.002 µM. The IC50 in the series on MCF-7 cells (setting [6]) was found to be 0.043 ± 0.002 µM. The MIC in the series with S. aureus stood at 0.027 ± 0.001 µM (≈ 0.0151 µg/mL); with P. aeruginosa, 0.053 ± 0.003 µM (≈ 0.0297 µg/mL); with B. subtilis (Bacillus subtilis, Gram-positive, read-out: Minimum inhibitory concentration (MIC), B. subtilis) it was 0.022 ± 0.001 µM (≈ 0.0123 µg/mL); with E. coli, 0.048 ± 0.003 µM (≈ 0.0269 µg/mL). For the same compound, the viability at 96 h, 50 µM in “in vitro” turned out to be 91%. In addition, the “Fold less efficient than ciprofloxacin (MIC), B. subtilis” value in the series with B. subtilis is recorded as 2.2 fold. Besides, the “Fold less potent than compound 11f (GI50)” value in series [1] was determined as 1.5 fold. Besides, the GI50 in series [1] (Homo sapiens) came to 0.041 µM.

With `COc1ccc(/C=C/C(=O)c2sc(SCC(=O)c3cc4cc(Br)ccc4oc3=O)nc2C)cc1` [Compound 11f, (E)-6-Bromo-3-(2-((5-(3-(4-methoxyphenyl)acryloyl)-4-methylthiazol-2-yl)thio)acetyl)-2H-chromen-2-one], the IC50 in the series with Panc-1 cells (setting [3]) was determined as 0.026 ± 0.001 µM; against EGFR, 0.071 ± 0.003 µM; at VEGFR-2 it was 2.9 ± 0.01 µM; in the series on HT-29 cells (setting [4]), 0.028 ± 0.001 µM; in the series with A-549 cells (setting [5]), 0.025 ± 0.001 µM; in the series with MCF-7 cells (setting [6]) it was 0.029 ± 0.001 µM. Besides, on E. coli DNA gyrase, the remaining activity at 1 µM came out at 71%. Further, the viability at 96 h, 50 µM in “in vitro” worked out at 93%. In addition, the “Fold more potent than erlotinib (IC50), A-549” value in the series with A-549 cells (A-549) is 1.2 fold. Besides, the “Fold more potent than erlotinib (IC50), MCF-7” value in the series with MCF-7 cells (MCF-7) was 1.4 fold. In addition, the GI50 in series [1] (Homo sapiens) is 0.027 µM. In addition, in [1] (four cancer cell lines), the “Fold more active than erlotinib (GI50)” value is 1.2 fold.

As to `CO[C@@H]1[C@@H](OC(N)=O)[C@@H](O)[C@H](Oc2ccc3c(O)c(NC(=O)c4ccc(O)c(CC=C(C)C)c4)c(=O)oc3c2C)OC1(C)C` [Novobiocin], the IC50 in [2] was 26.7 µM.

Usually IC50 stands for the midpoint of a concentration-inhibition curve. A word on the GI50: it is the concentration giving 50% growth inhibition. One may read the viability as the share of living cells, or the viability signal relative to a control. Lower therefore signals a greater loss of cells.
